From ChEMBL document CHEMBL4308841, “Synthesis, in vitro antiproliferative activity, and kinase inhibitory effects of pyrazole-containing diarylureas and diarylamides” (Eur J Med Chem, 2018)
pIC50: −log10 of the molar value.

Assays:
NCI-H522 = test: Growth inhibition of human NCI-H522 cells assessed as cell growth at 100 uM incubated for 48 hrs by sulforhodamine B assay relative to control; type: functional; conditions: NCI-H522, 48 h, read-out: Activity
OVCAR-8 = test: Growth inhibition of human OVCAR8 cells assessed as cell growth at 1 uM incubated for 48 hrs by sulforhodamine B assay relative to control; type: functional; conditions: OVCAR-8, 48 h, read-out: Activity
MDA-MB-468 = test: Growth inhibition of human MDA-MB-468 cells assessed as cell growth at 100 uM incubated for 48 hrs by sulforhodamine B assay relative to control; type: functional; conditions: MDA-MB-468, 48 h, read-out: Activity
SK-MEL-5 [1] = test: Growth inhibition of human SK-MEL-5 cells assessed as cell growth at 1 uM incubated for 48 hrs by sulforhodamine B assay relative to control; type: functional; conditions: SK-MEL-5, 48 h, read-out: Activity
HCT-15 [2] = test: Growth inhibition of human HCT15 cells incubated for 48 hrs by sulforhodamine B assay; type: functional, cell-based; conditions: HCT-15, 48 h
OVCAR-4 = test: Growth inhibition of human OVCAR4 cells assessed as cell growth at 1 uM incubated for 48 hrs by sulforhodamine B assay relative to control; type: functional; conditions: OVCAR-4, 48 h, read-out: Activity
SN12C [3] = test: Growth inhibition of human SN12C cells assessed as cell growth at 0.1 uM incubated for 48 hrs by sulforhodamine B assay relative to control; type: functional; conditions: read-out: Activity
SF-268 = test: Growth inhibition of human SF268 cells assessed as cell growth at 0.01 uM incubated for 48 hrs by sulforhodamine B assay relative to control; type: functional; conditions: SF-268, 48 h, read-out: Activity
SN12C [4] = test: Growth inhibition of human SN12C cells assessed as cell growth at 100 uM incubated for 48 hrs by sulforhodamine B assay relative to control; type: functional; conditions: read-out: Activity
LOX IMVI = test: Growth inhibition of human LOXIMVI cells assessed as cell growth at 0.1 uM incubated for 48 hrs by sulforhodamine B assay relative to control; type: functional; conditions: read-out: Activity
COLO 205 = test: Growth inhibition of human COLO205 cells incubated for 48 hrs by sulforhodamine B assay; type: functional, cell-based; conditions: COLO 205, 48 h
NCI-H23 = test: Growth inhibition of human NCI-H23 cells assessed as cell growth at 1 uM incubated for 48 hrs by sulforhodamine B assay relative to control; type: functional; conditions: NCI-H23, 48 h, read-out: Activity
PC-3 = test: Growth inhibition of human PC3 cells assessed as cell growth at 1 uM incubated for 48 hrs by sulforhodamine B assay relative to control; type: functional; conditions: PC-3, 48 h, read-out: Activity
Malme-3M = test: Growth inhibition of human MALME-3M cells incubated for 48 hrs by sulforhodamine B assay; type: functional, cell-based
OVCAR-5 [5] = test: Growth inhibition of human OVCAR5 cells assessed as cell growth at 100 uM incubated for 48 hrs by sulforhodamine B assay relative to control; type: functional; conditions: OVCAR-5, 48 h, read-out: Activity
UO-31 = test: Growth inhibition of human UO31 cells assessed as cell growth at 0.1 uM incubated for 48 hrs by sulforhodamine B assay relative to control; type: functional; conditions: UO-31, 48 h, read-out: Activity
UACC-62 [6] = test: Growth inhibition of human UACC62 cells incubated for 48 hrs by sulforhodamine B assay; type: functional, cell-based; conditions: UACC-62, 48 h
M14 = test: Growth inhibition of human M14 cells assessed as cell growth at 1 uM incubated for 48 hrs by sulforhodamine B assay relative to control; type: functional; conditions: M14, 48 h, read-out: Activity
MOLT-4 = test: Growth inhibition of human MOLT4 cells assessed as cell growth at 0.01 uM incubated for 48 hrs by sulforhodamine B assay relative to control; type: functional; conditions: MOLT-4, 48 h, read-out: Activity
SK-MEL-5 [7] = test: Growth inhibition of human SK-MEL-5 cells assessed as cell growth at 0.01 uM incubated for 48 hrs by sulforhodamine B assay relative to control; type: functional; conditions: SK-MEL-5, 48 h, read-out: Activity
SK-MEL-5 [8] = test: Growth inhibition of human SK-MEL-5 cells assessed as cell growth at 0.1 uM incubated for 48 hrs by sulforhodamine B assay relative to control; type: functional; conditions: SK-MEL-5, 48 h, read-out: Activity
A498 [9] = test: Growth inhibition of human A498 cells assessed as cell growth at 0.1 uM incubated for 48 hrs by sulforhodamine B assay relative to control; type: functional; conditions: A498, 48 h, read-out: Activity
ACHN = test: Growth inhibition of human ACHN cells incubated for 48 hrs by sulforhodamine B assay; type: functional, cell-based
HCT-15 [10] = test: Growth inhibition of human HCT15 cells assessed as cell growth at 1 uM incubated for 48 hrs by sulforhodamine B assay relative to control; type: functional; conditions: HCT-15, 48 h, read-out: Activity
A498 [11] = test: Growth inhibition of human A498 cells assessed as cell growth at 1 uM incubated for 48 hrs by sulforhodamine B assay relative to control; type: functional; conditions: A498, 48 h, read-out: Activity
UACC-62 [12] = test: Growth inhibition of human UACC62 cells assessed as cell growth at 0.1 uM incubated for 48 hrs by sulforhodamine B assay relative to control; type: functional; conditions: UACC-62, 48 h, read-out: Activity
RPMI-8226 = test: Growth inhibition of human RPMI8226 cells assessed as cell growth at 1 uM incubated for 48 hrs by sulforhodamine B assay relative to control; type: functional; conditions: RPMI-8226, 48 h, read-out: Activity
CCRF-CEM = test: Growth inhibition of human CCRF-CEM cells assessed as cell growth at 100 uM incubated for 48 hrs by sulforhodamine B assay relative to control; type: functional; conditions: read-out: Activity
SK-MEL-5 [13] = test: Growth inhibition of human SK-MEL-5 cells incubated for 48 hrs by sulforhodamine B assay; type: functional, cell-based; conditions: SK-MEL-5, 48 h
OVCAR-5 [14] = test: Growth inhibition of human OVCAR5 cells assessed as cell growth at 0.01 uM incubated for 48 hrs by sulforhodamine B assay relative to control; type: functional; conditions: OVCAR-5, 48 h, read-out: Activity
[15] = read-out: LC50 (the source's name)
[16] = read-out: pLC50 (the source's name) (converted)

COc1cc(Cl)cc(-c2nn(-c3cccc(NC(=O)Nc4cccc(C(F)(F)F)c4)c3)cc2-c2ccncc2)c1
growth at 100 µM (NCI-H522): -78%
growth at 1 µM (OVCAR-8): 54%
growth at 100 µM (MDA-MB-468): -34%
growth at 1 µM (SK-MEL-5 [1]): 80%
GI50 (HCT-15 [2]; read-out: GI50): 1.34 µM
CC50 (HCT-15 [2]; [15]): 50 µM
TGI (HCT-15 [2]; read-out: TGI): 10.6 µM
GI50 (HCT-15 [2]; read-out: pGI50 (converted)): 1.35 µM
CC50 (HCT-15 [2]; [16]): 50.1 µM
TGI (HCT-15 [2]; read-out: pTGI (converted)): 10.7 µM
growth at 1 µM (OVCAR-4): 71%
growth at 0.1 µM (SN12C [3]): 96%
growth at 0.01 µM (SF-268): 97%
growth at 100 µM (SN12C [4]): -20%
growth at 0.1 µM (LOX IMVI): 97%
GI50 (COLO 205; read-out: GI50): 1.53 µM
CC50 (COLO 205; [15]): 65.5 µM
TGI (COLO 205; read-out: TGI): 31.7 µM
GI50 (COLO 205; read-out: pGI50 (converted)): 1.51 µM
CC50 (COLO 205; [16]): 6.61 µM
TGI (COLO 205; read-out: pTGI (converted)): 3.16 µM
growth at 1 µM (NCI-H23): 71%
growth at 1 µM (PC-3): 27%
GI50 (Malme-3M; read-out: GI50): 1.79 µM
CC50 (Malme-3M; [15]): > 100 µM
TGI (Malme-3M; read-out: TGI): 59.1 µM
GI50 (Malme-3M; read-out: pGI50 (converted)): 1.78 µM
CC50 (Malme-3M; [16]): > 100 µM
TGI (Malme-3M; read-out: pTGI (converted)): 5.89 µM
growth at 100 µM (OVCAR-5 [5]): -13%
growth at 0.1 µM (UO-31): 50%
pIC50 (UACC-62 [6]): 5.83
GI50 (UACC-62 [6]; read-out: GI50): 1.47 µM
CC50 (UACC-62 [6]; [15]): 10.2 µM
TGI (UACC-62 [6]; read-out: TGI): 33.4 µM
GI50 (UACC-62 [6]; read-out: pGI50 (converted)): 1.48 µM
CC50 (UACC-62 [6]; [16]): 10.2 µM
TGI (UACC-62 [6]; read-out: pTGI (converted)): 3.8 µM
growth at 1 µM (M14): 64%
growth at 0.01 µM (MOLT-4): 95%
growth at 0.01 µM (SK-MEL-5 [7]): 96%
growth at 0.1 µM (SK-MEL-5 [8]): 98%
growth at 0.1 µM (A498 [9]): 92%
GI50 (ACHN; read-out: GI50): 1.72 µM
CC50 (ACHN; [15]): > 100 µM
TGI (ACHN; read-out: TGI): 15.2 µM
GI50 (ACHN; read-out: pGI50 (converted)): 1.7 µM
CC50 (ACHN; [16]): > 100 µM
TGI (ACHN; read-out: pTGI (converted)): 16.2 µM
growth at 1 µM (HCT-15 [10]): 57%
growth at 1 µM (A498 [11]): 75%
growth at 0.1 µM (UACC-62 [12]): 96%
growth at 1 µM (RPMI-8226): 22%
growth at 100 µM (CCRF-CEM): -18%
GI50 (SK-MEL-5 [13]; read-out: GI50): 1.43 µM
CC50 (SK-MEL-5 [13]; [15]): 54.5 µM
TGI (SK-MEL-5 [13]; read-out: TGI): 25.4 µM
GI50 (SK-MEL-5 [13]; read-out: pGI50 (converted)): 1.48 µM
CC50 (SK-MEL-5 [13]; [16]): 5.5 µM
TGI (SK-MEL-5 [13]; read-out: pTGI (converted)): 2.82 µM
growth at 0.01 µM (OVCAR-5 [14]): 94%
